Where two headings read alike, the source gives them in different places.

The test system of assay [1] is J5. The assay is described as follows: Cytotoxicity (IC50) on J5. The format is cell-based. To be noted: Homo sapiens. The protocol:
(§1) Human tumor cell lines (MCF-7, CL1-5, HT-29, Caco-2), human umbilical vascular endothelial cells (HUVEC), and human dermal fibroblasts (HDF) were tested for sensitivity on Angelicae sinensis extracts, ligustilide, n-butylidenephthalide and its derivatives in vitro. The DBTRG-05MG, BCM, HL-60 and J5 cells were grown in RPMI-1640 medium containing 10% fetal calf serum and 100 ng/ml penicillin and […] streptomycin at 37° C. in a humidified atmosphere with 5% CO2. The G5T/VGH, RG2, Ni 8, SVEC and Balb/3T3 cells were cultured in DMEM with 10% fetal calf serum and 100 ng/ml penicillin and […] streptomycin at 37° C. in 5% CO2. Mycoplasma infection of the culture cells was excluded by PCR screening methods before each experiment.
(§2) The effects on cell viability after the treatments with different concentrations of the Angelicae sinensis extracts or the active components purified therefrom were evaluated by modified MTT assay in triplicate. Briefly, the cells (5×10^3) were incubated into 96-well plates containing 100 μl of a growth medium. The cells were permitted to adhere for 24 hours, then treated with 100 μl of the herbal extracts or the active components dissolved in the medium. The control contained DMSO of <0.02% (v/v). […] Absorbance at 550 nm of the solutions was measured with MRX Microtiter Plate Luminometer (DYNEX, USA). The absorbance of untreated cells was considered as 100%. […]

Assay [2] relates to A549. Nature of the assay: Cytotoxicity (IC50) on A549. In kind it is cell-based. To be noted: Homo sapiens. The procedure:
The effects on cell viability after the treatments with different concentrations of the Angelicae sinensis extracts or the active components purified therefrom were evaluated by modified MTT assay in triplicate. Briefly, the cells (5×10^3) were incubated into 96-well plates containing 100 μl of a growth medium. The cells were permitted to adhere for 24 hours, then treated with 100 μl of the herbal extracts or the active components dissolved in the medium. The control contained DMSO of <0.02% (v/v). After 24, 48 and 72 h incubation, the drug-containing medium was replaced by 50 μl of fresh medium, and cells in each well were incubated in 50 μl of 400 μg/ml MTT for 6-8 h. The medium and MTT were removed later and 100 μl of DMSO was added to each well and to the control, to dissolve the soluble components. Absorbance at 550 nm of the solutions was measured with MRX Microtiter Plate Luminometer (DYNEX, USA). The absorbance of untreated cells was considered as 100%. To evaluate the effects of the extracts or the active components on cell growth rate of GBM cells, 5×10^3 exponentially growing cells were treated with different concentrations for 24, 48, or 72 h. The cytotoxicity of each test substance was determined as an IC50 value, which represents the drug concentration required to cause 50% inhibition. All experiments in this study were performed in triplicate.

Assay [3] deals with DBTRG-05MG cells. Nature of the assay: s.c. xenograft human GBM tumors in nude mice, BP. In kind it is in vivo, Foxn1 nude mice. The procedure: The RG2 cells (rat GBM) and DBTRG-05MG cells (human GBM) were used in animal experiments to monitor the anti-tumor activities of AS-C and BP. Male F344 rat (230-260 g) and male Foxn1 nu/nu mice (10-12 weeks) were obtained from National Laboratory Animal Center (Taipei, Taiwan). All procedures were performed in compliance with the Standard Operation Procedures of the Laboratory Animal Center of Tzu Chi University (Hualien, Taiwan). Animals were kept under pathogen-free conditions and fed a standard laboratory diet. The DBTRG-05MG cells (human GBM) and RG2 cells (rat GBM) were prepared for nude mice xenografts and rat allogenics, respectively.
Animals (Foxn1 nude mice) in six groups (6/group) were implanted subcutaneously (s.c.) with 1×10^6 DBTRG-05MG cells, and randomly treated with BP s.c. (70, 150, 300, 500, 800 mg/kg/day) or vehicle s.c. at a site remote (>2 cm) from the incubated tumor after tumor cell implantation, at day 4, 5, 6, 7 and 8 for all five dosages. Tumor size was measured every 2 days and tumor volume was calculated. Animals were sacrificed when tumor exceeded 1000 mm^3. Tumor growth was monitored for 3 months for those not sacrificed. Survival rate was followed for up to 200 days.
A general note: In xenograft studies the graft and the host belong to different species.

Assay [4] has as its system ETS-1. Nature of the assay: RT-PCR of ETS-1 in HUVEC. In kind it is cell-based, human.
Assay [5] concerns HUVEC. The assay is described as follows: Tube formation of HUVEC. The format is cell-based, human.
The subject of assay [6] is GBM cells (DBTRG-05MG). The assay is described as follows: Apoptosis of GBM cells by TUNEL. The format is cell-based, human. The protocol: Apoptotic cell death was analyzed using In Situ Cell Death Detection Kit, POD (Roche, Germany). Changes in DNA chromatin morphologic features were used for quantification. The procedures were performed in accordance with the manufacturer's instructions. […] In AS-C and BP-treated groups, the suspended cells were collected. In the control group, adherent and floating cells were collected. Then, the cells were fixed with 3.7% formaldehyde at room temperature for 15 min. on saline coated slides, washed once in 1×PBS, and incubated in cold permeabilization solution (0.1% Triton X-100+0.1% sodium citrate) after reducing activity of endogenous peroxidase with 3% H2O2. The cells were washed with 1×PBS again, and incubated with terminal deoxynucleiotidyl transferase (TdT)-mediated dUTP nicks labeling (TUNEL) reaction mixture for 60 minutes at 37° C. Then, the cells were washed with 1×PBS, counterstained with propidium iodide (PI) for cell counting. For quantification of apoptosis, the results were viewed under fluorescence microscopy (Nikon, Kawasaki, Japan).
The apoptotic cells with AS-C treatment were detected by fluorescence microscopy (400×), with In Situ TUNEL staining and propidium iodide cell counterstaining, and observed under light field. Likewise, BP induced apoptosis in GBM cells was assessed by TUNEL method and using propidium iodide as a counter stain. […]

Assay [7] relates to Caco-2. The assay is described as follows: Cytotoxicity (IC50) on Caco-2. In kind it is cell-based. As to conditions: Homo sapiens. The procedure:
as §1, §2

Usually IC50 stands for the point on the concentration scale where inhibition reaches its midpoint. For `CCCC=C1OC(=O)c2ccccc21` [BP, n-Butylidenephthalide], the IC50 is 15 to 20 µg/mL in assay [1] (Table 2); 79.8 to 106 µM in assay [1] (Table 2, value in parentheses); 8 to 12 µg/mL in assay [2] (Table 2); 42.6 to 63.8 µM in assay [2] (Table 2, value in parentheses); greater than 106 µM in assay [7] (Table 1, value in parentheses); greater than 20 µg/mL in assay [7] (cancer cells, Table 1). In assay [3] (BP s.c. 70-800 mg/kg/day day 4-8, dose dependent, p<0.005 for 300 mg/kg), the “tumor growth compared with untreated group” value is listed as “significant suppressions of tumor growth”. In addition, the “survival period of nude mice” value in assay [3] (BP s.c. 70-800 mg/kg/day, followed for up to 200 days) is “up to 200 days”. Moreover, the “Inhibition RT-PCR ETS-1” value is 53.13 µg/mL in assay [4] and “(282.6 μM)” in assay [4] (value in parentheses). In addition, the “Inhibition Tube Formation” value is 531.3 µg/mL in assay [5] and “(2826 μM)” in assay [5] (value in parentheses). Moreover, the “apoptosis rates of GBM cells compared to untreated cells (TUNEL)” value in assay [6] (BP 5 to 800 μM, 48 hours) is “much higher”. The “detached GBM cells having undergone apoptosis (TUNEL)” value in assay [6] (BP 5˜800 μg/ml as printed, 72 hours) was “almost all”.

For the origin of these results see patent US7455861B2, “Angelicae sinensis extracts useful for treatment of cancers” (priority 2004, dated 2008).
